Measurements reported in patent publication US20250032623A1, “HETEROBIFUNCTIONAL COMPOUNDS AND THEIR USE IN TREATING DISEASE” (HALDA THERAPEUTICS OPCO, INC., priority 2021, published 2025).
Read-outs that look alike come from different tables or passages of the source.

Key:
[1] = biological target: T1, EGFR T790M, L858R (amino acids 669-1011 Accession Number NP_005219.2) (Homo sapiens, UniProt P00533, L858R/T790M); experiment: KdELECT binding assay (Eurofins Discovery), EGFR T790M, L858R; conditions: read-out: EGFR DM Kd
T1 construct: purchased Eurofins Discovery; host or cells: mammalian cells (HEK-293)
Procedure, shortened: (§1)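 Competition binding: WT kinase as T7 phage fusion from E. coli, T790M/L858R produced in HEK-293 and DNA-tagged, incubated 1 h at room temperature with immobilized ligand beads and compound (11-point 3-fold series, 0.9% DMSO). Bead-bound kinase eluted and quantified by qPCR to derive Kd.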

EGFR = biological target: T2, EGFR (Homo sapiens, UniProt P00533); experiment: KdELECT binding assay, EGFR
T2 construct: purchased
Procedure, shortened: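 Competition binding: DNA- or T7 phage-tagged EGFR was incubated 1 h at room temperature with immobilized ligand beads and an 11-point 3-fold compound series (0.9% DMSO final). Bead-bound kinase was eluted and quantified by qPCR to derive Kd.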

[2] = biological target: T3, EGFR WT (amino acids 669-1011, Accession Number NP_005219.2) (Homo sapiens, UniProt P00533); experiment: KdELECT binding assay (Eurofins Discovery), EGFR WT
T3 construct: purchased Eurofins Discovery; host or cells: bacteria (E. coli, BL21-derived, T7 phage)
Procedure, shortened: as §1

HeLa cells = experiment: Cellular growth inhibition assay (CellTiter-Glo), HeLa cells; format: cell-based; conditions: three days compound treatment, CellTiter-Glo 2.0, read-out: CTG HELA GI50
Procedure, shortened: (§2)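 HEK293 or HeLa cells seeded at 500 cells/well in DMEM with 10% FBS, treated after 24 h with titrated compound for three days at 37 °C, 5% CO2. CellTiter-Glo 2.0 luminescence read on Day 0 and Day 3, normalized to DMSO, four-parameter fit giving GI50.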

HEK293 cells = experiment: Cellular growth inhibition assay (CellTiter-Glo), HEK293 cells; format: cell-based; conditions: three days compound treatment, CellTiter-Glo 2.0, read-out: CTG HEK293 GI50
Procedure, shortened: as §2

T2 sequence (P00533 25-1210): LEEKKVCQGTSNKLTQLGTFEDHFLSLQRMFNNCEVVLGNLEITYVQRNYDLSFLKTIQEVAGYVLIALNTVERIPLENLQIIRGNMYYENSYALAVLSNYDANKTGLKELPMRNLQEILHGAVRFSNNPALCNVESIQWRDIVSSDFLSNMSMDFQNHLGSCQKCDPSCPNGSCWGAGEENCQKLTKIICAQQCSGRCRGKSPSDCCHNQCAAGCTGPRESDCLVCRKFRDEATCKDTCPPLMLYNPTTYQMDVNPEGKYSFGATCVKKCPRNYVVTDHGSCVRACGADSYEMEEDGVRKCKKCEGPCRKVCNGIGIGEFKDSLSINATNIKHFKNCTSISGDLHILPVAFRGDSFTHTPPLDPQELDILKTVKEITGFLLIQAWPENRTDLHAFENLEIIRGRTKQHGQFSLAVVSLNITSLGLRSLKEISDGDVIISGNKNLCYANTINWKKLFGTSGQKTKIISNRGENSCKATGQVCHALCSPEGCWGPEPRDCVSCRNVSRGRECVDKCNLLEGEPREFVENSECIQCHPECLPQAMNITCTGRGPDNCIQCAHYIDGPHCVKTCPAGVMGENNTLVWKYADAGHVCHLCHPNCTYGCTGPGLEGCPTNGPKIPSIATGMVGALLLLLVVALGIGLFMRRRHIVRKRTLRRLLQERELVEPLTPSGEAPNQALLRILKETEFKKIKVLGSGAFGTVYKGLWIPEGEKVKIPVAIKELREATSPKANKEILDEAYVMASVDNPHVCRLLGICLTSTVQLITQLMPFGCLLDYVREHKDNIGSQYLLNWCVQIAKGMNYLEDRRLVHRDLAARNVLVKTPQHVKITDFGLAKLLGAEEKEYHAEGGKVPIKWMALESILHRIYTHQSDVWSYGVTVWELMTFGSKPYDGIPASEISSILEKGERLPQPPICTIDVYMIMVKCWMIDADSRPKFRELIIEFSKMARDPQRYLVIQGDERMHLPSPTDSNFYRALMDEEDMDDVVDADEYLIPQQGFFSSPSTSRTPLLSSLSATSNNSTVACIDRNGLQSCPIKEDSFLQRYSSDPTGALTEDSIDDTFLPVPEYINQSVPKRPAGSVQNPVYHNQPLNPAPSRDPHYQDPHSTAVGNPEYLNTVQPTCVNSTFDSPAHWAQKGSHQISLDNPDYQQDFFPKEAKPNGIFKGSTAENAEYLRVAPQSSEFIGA
T1 sequence (P00533 669-1011 T790M/L858R): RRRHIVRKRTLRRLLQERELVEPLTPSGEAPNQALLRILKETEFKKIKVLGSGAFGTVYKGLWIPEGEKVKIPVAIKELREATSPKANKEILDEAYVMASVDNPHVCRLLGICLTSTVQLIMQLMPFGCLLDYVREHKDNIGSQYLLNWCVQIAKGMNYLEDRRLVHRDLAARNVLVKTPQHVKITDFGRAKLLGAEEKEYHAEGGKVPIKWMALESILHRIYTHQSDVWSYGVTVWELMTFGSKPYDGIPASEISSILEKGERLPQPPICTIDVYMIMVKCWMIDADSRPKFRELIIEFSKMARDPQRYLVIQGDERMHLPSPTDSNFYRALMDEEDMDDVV
T3 sequence (P00533 669-1011): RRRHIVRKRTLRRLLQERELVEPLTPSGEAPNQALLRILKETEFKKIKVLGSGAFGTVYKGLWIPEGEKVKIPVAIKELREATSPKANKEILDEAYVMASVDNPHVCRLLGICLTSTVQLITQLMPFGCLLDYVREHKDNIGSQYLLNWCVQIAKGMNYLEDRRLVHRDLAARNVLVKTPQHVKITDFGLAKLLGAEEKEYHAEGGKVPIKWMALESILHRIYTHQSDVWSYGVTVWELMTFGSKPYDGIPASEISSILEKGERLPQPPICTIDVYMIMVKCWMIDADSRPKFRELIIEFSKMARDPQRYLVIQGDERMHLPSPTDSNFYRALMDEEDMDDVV

| SMILES | Kd [1] | Kd (EGFR) | Kd [2] | GI50 (HeLa cells; Homo sapiens, 72 h) | GI50 (HEK293 cells; Homo sapiens, 72 h) | GI50 (HeLa cells) | GI50 (HEK293 cells) |
| --- | --- | --- | --- | --- | --- | --- | --- |
| C=CC(=O)N[C@@H]1CN(c2nc(Nc3cn(CCOCCON(C)C(=O)N4N=C(c5cc(F)ccc5F)S[C@@]4(CCCN)c4ccccc4)nc3OC)c3ncn(C)c3n2)C[C@H]1F [Compound I-134, (2S)-2-(3-aminopropyl)-5-(2,5-difluorophenyl)-N—[2-[2-[4-[[2-[(3R,4R)-3-fluoro-4-(prop-2-enoylamino)pyrrolidin-1-yl]-9-methyl-purin-6-yl]amino]-3-methoxy-pyrazol-1-yl]ethoxy]ethoxy]-N-methyl-2-phenyl-1,3,4-thiadiazole-3-carboxamide] | < 50 nM | < 50 nM | < 50 nM | 1500 to 5000 nM | > 5000 nM |  |  |
| C=CC(=O)N[C@@H]1CN(c2nc(Nc3cn(CCCON(C)C(=O)N4N=C(c5cc(F)ccc5F)S[C@@]4(CCCN)c4ccccc4)nc3OC)c3ncn(C)c3n2)C[C@H]1F [Compound I-135, (2S)-2-(3-aminopropyl)-5-(2,5-difluorophenyl)-N-[3-[4-[[2-[(3R,4R)-3-fluoro-4-(prop-2-enoylamino)pyrrolidin-1-yl]-9-methyl-purin-6-yl]amino]-3-methoxy-pyrazol-1-yl]propoxy]-N-methyl-2-phenyl-1,3,4-thiadiazole-3-carboxamide] | < 50 nM | < 50 nM | < 50 nM | > 5000 nM | > 5000 nM |  |  |
| C=CC(=O)N[C@@H]1CN(c2nc(Nc3cn(CCCN4CCN(CCCNC(=O)c5ccc(Nc6ncc7c(n6)N(C6CCCC6)[C@H](CC)C(=O)N7C)c(OC)c5)CC4)nc3OC)c3ncn(C)c3n2)C[C@H]1F [Compound I-136, 4-[[(7R)-8-cyclopentyl-7-ethyl-5-methyl-6-oxo-7H-pteridin-2-yl]amino]-N-[3-[4-[3-[4-[[2-[(3R,4R)-3-fluoro-4-(prop-2-enoylamino)pyrrolidin-1-yl]-9-methyl-purin-6-yl]amino]-3-methoxy-pyrazol-1-yl]propyl]piperazin-1-yl]propyl]-3-methoxy-benzamide] | < 50 nM | < 50 nM | < 50 nM | < 500 nM | 500 to 1500 nM |  |  |
| C=CC(=O)N[C@@H]1CN(c2nc(Nc3cn(CCCN4CCN(CCCON(C)C(=O)N5N=C(c6cc(F)ccc6F)S[C@@]5(CCCN)c5ccccc5)CC4)nc3OC)c3ncn(C)c3n2)C[C@H]1F [Compound I-137, (2S)-2-(3-aminopropyl)-5-(2,5-difluorophenyl) —N-[3-[4-[3-[4-[[2-[(3R,4R)-3-fluoro-4-(prop-2-enoylamino)pyrrolidin-1-yl]-9-methyl-purin-6-yl]amino]-3-methoxy-pyrazol-1-yl]propyl]piperazin-1-yl]propoxy]-N-methyl-2-phenyl-1,3,4-thiadiazole-3-carboxamide] | < 50 nM | < 50 nM | < 50 nM | 1500 to 5000 nM | > 5000 nM |  |  |
| C=CC(=O)N[C@@H]1CN(c2nc(Nc3cn(CCOc4ccc(CNc5cc(N6CCCC[C@H]6CCO)nc6c(CC)cnn56)cn4)nc3OC)c3ncn(C)c3n2)C[C@H]1F [Compound I-139, N-[(3R,4R)-1-[6-[[1-[2-[[5-1[[[3-ethyl-5-[(2S)-2-(2-hydroxyethyl)-1-piperidyl]pyrazolo[1,5-a]pyrimidin-7-yl]amino]methyl]-2-pyridyl]oxy]ethyl]-3-methoxy-pyrazol-4-yl]amino]-9-methyl-purin-2-yl]-4-fluoro-pyrrolidin-3-yl]prop-2-enamide] | < 50 nM | 50 to 500 nM | 50 to 500 nM | < 500 nM | < 500 nM |  |  |
| C=CC(=O)N[C@@H]1CN(c2nc(Nc3cn(CCOCCOCCOCCOCCOCCOCCOc4ccc(CNc5cc(N6CCCC[C@@H]6CCO)nc6c(CC)cnn56)cn4)nc3OC)c3ncn(C)c3n2)C[C@H]1F [Compound I-140, N—[(3R,4R)-1-[6-[[1-[2-[2-[2-[2-[2-[2-[2-[[5-111[[[3-ethyl-5-[(2R)-2-(2-hydroxyethyl)-1-piperidyl]pyrazolo[1,5-a]pyrimidin-7-yl]amino]methyl]-2-pyridyl]oxy]ethoxy]ethoxy]ethoxy]ethoxy]ethoxy]ethoxy]ethyl]-3-methoxy-pyrazol-4-yl]amino]-9-methyl-purin-2-yl]-4-fluoro-pyrrolidin-3-yl]prop-2-enamide] | < 50 nM | 50 to 500 nM | 50 to 500 nM |  |  | < 500 nM | < 500 nM |
| C=CC(=O)Nc1cc(Nc2nccc(-c3cn(C)c4ccccc34)n2)c(OC)cc1N(C)CCN(C)CCOCCOCCOc1ccc(CNc2cc(N3CCCC[C@H]3CCO)nc3c(CC)cnn23)cn1 [Compound I-141, N-[2-[2-[2-[2-[2-[[5-[[[3-ethyl-5-[(2S)-2-(2-hydroxyethyl)-1-piperidyl]pyrazolo[1,5-a]pyrimidin-7-yl]amino]methyl]-2-pyridyl]oxy]ethoxy]ethoxy]ethyl-methyl-amino]ethyl-methyl-amino]-4-methoxy-5-[[4-(1-methylindol-3-yl)pyrimidin-2-yl]amino]phenyl]prop-2-enamide] | < 50 nM | 50 to 500 nM | 50 to 500 nM | < 500 nM | < 500 nM |  |  |
| C=CC(=O)Nc1cc(Nc2nccc(-c3cn(C)c4ccccc34)n2)c(OC)cc1N(C)CCN(C)CCCN1CCN(CCCOc2ccc(CNc3cc(N4CCCC[C@H]4CCO)nc4c(CC)cnn34)cn2)CC1 [Compound I-149, N-[2-[2-[3-[4-[3-[[5-[[[3-ethyl-5-[(2S)-2-(2-hydroxyethyl)-1-piperidyl]pyrazolo[1,5-a]pyrimidin-7-yl]amino]methyl]-2-pyridyl]oxy]propyl]piperazin-1-yl]propyl-methyl-amino]ethyl-methyl-amino]-4-methoxy-5-[[4-(1-methylindol-3-yl)pyrimidin-2-yl]amino]phenyl]prop-2-enamide] | < 50 nM | 500 to 2500 nM | 500 to 2500 nM | < 500 nM | < 500 nM |  |  |
| C=CC(=O)N[C@@H]1CN(c2nc(Nc3cn(CCCCNS(=O)(=O)c4ccc(Nc5ncc(Br)c(Nc6cccc(F)c6C(N)=O)n5)cc4)nc3OC)c3ncn(C)c3n2)CC1F (stereo partly drawn) [Compound I-150, 2-[[5-bromo-2-[4-[4-[4-[[2-[(4R)-3-fluoro-4-(prop-2-enoylamino)pyrrolidin-1-yl]-9-methyl-purin-6-yl]amino]-3-methoxy-pyrazol-1-yl]butylsulfamoyl]anilino]pyrimidin-4-yl]amino]-6-fluoro-benzamide] | < 50 nM | < 50 nM | < 50 nM | > 5000 nM | 500 to 1500 nM |  |  |
| CC[C@@H]1C(=O)N(C)c2cnc(Nc3ccc(C(=O)NCCCN4CCN(CCCN(C)C/C=C/C(=O)N[C@@H]5CN(c6nc(Nc7cn(C)nc7OC)c7ncn(C)c7n6)C[C@H]5F)CC4)cc3OC)nc2N1C1CCCC1 [Compound I-152, 4-[[(7R)-8-cyclopentyl-7-ethyl-5-methyl-6-oxo-7H-pteridin-2-yl]amino]-N-[3-[4-[3-[[(E)-4-[[(3R,4R)-4-fluoro-1-1[6-1[(3-methoxy-1-methyl-pyrazol-4-yl)amino]-9-methyl-purin-2-yl]pyrrolidin-3-yl]amino]-4-oxo-but-2-enyl]-methyl-amino]propyl]piperazin-1-yl]propyl]-3-methoxy-benzamide] | < 50 nM | 500 to 2500 nM | 500 to 2500 nM | < 500 nM | > 5000 nM |  |  |
